From the NIST ThermoML archive (doi:10.1016/j.fluid.2012.09.007)

Test: xn = mol fraction of the nth substance listed
Conditions: 101 kPa, Liquid, Vibrating tube method

CC(C)CC(C)(C)C [2,2,4-trimethylpentane] + CCC(C)(C)OC
x2 = 0
Conditions	mass density [kg/m3]
298.15 K	687.68
308.15 K	679.48
318.15 K	671.34

CC(C)CC(C)(C)C [2,2,4-trimethylpentane] + c1ccccc1
Conditions	mass density [kg/m3]
298.15 K, x2 = 0	687.69
298.15 K, x2 = 0.06106	693.48
298.15 K, x2 = 0.1418	701.74
298.15 K, x2 = 0.2015	708.37
298.15 K, x2 = 0.2685	716.35
298.15 K, x2 = 0.3382	725.38
298.15 K, x2 = 0.399	733.9
298.15 K, x2 = 0.4639	743.77
298.15 K, x2 = 0.5179	752.66
298.15 K, x2 = 0.5986	767.18
298.15 K, x2 = 0.6562	778.61
298.15 K, x2 = 0.7257	793.77
298.15 K, x2 = 0.7993	811.66
298.15 K, x2 = 0.871	831.31
298.15 K, x2 = 0.9483	855.37
308.15 K, x2 = 0	679.5
308.15 K, x2 = 0.07837	686.91
308.15 K, x2 = 0.139	693.09
308.15 K, x2 = 0.2112	701.03
308.15 K, x2 = 0.2701	707.99
308.15 K, x2 = 0.3244	714.88
308.15 K, x2 = 0.3912	723.99
308.15 K, x2 = 0.4607	734.35
308.15 K, x2 = 0.5319	745.93
308.15 K, x2 = 0.6019	758.53
308.15 K, x2 = 0.6669	771.38
308.15 K, x2 = 0.7335	785.91
308.15 K, x2 = 0.7944	800.56
308.15 K, x2 = 0.8662	819.8
308.15 K, x2 = 0.9302	839.08
318.15 K, x2 = 0	671.34
318.15 K, x2 = 0.07013	677.83
318.15 K, x2 = 0.1336	684.16
318.15 K, x2 = 0.2025	691.56
318.15 K, x2 = 0.272	699.64
318.15 K, x2 = 0.3457	708.99
318.15 K, x2 = 0.4011	716.6
318.15 K, x2 = 0.466	726.21
318.15 K, x2 = 0.535	737.39
318.15 K, x2 = 0.5941	747.85
318.15 K, x2 = 0.6592	760.41
318.15 K, x2 = 0.7319	775.94
318.15 K, x2 = 0.7981	791.66
318.15 K, x2 = 0.8656	809.56
318.15 K, x2 = 0.9321	829.34

CCC(C)(C)OC [2-methoxy-2-methylbutane] + CC(C)CC(C)(C)C
Conditions	mass density [kg/m3]
298.15 K, x1 = 0.06668	691.73
298.15 K, x1 = 0.1334	695.93
298.15 K, x1 = 0.2065	700.7
298.15 K, x1 = 0.2712	705.05
298.15 K, x1 = 0.3376	709.68
298.15 K, x1 = 0.3977	713.99
298.15 K, x1 = 0.4666	719.11
298.15 K, x1 = 0.527	723.75
298.15 K, x1 = 0.5952	729.17
298.15 K, x1 = 0.6668	735.06
298.15 K, x1 = 0.7314	740.58
298.15 K, x1 = 0.7975	746.43
298.15 K, x1 = 0.8616	752.31
298.15 K, x1 = 0.9325	759.06
298.15 K, x1 = 1	765.77
308.15 K, x1 = 0.06672	683.48
308.15 K, x1 = 0.1383	687.9
308.15 K, x1 = 0.2056	692.2
308.15 K, x1 = 0.2684	696.36
308.15 K, x1 = 0.3406	701.28
308.15 K, x1 = 0.401	705.55
308.15 K, x1 = 0.4585	709.75
308.15 K, x1 = 0.5291	715.06
308.15 K, x1 = 0.5953	720.24
308.15 K, x1 = 0.6632	725.74
308.15 K, x1 = 0.7339	731.67
308.15 K, x1 = 0.7946	736.96
308.15 K, x1 = 0.8646	743.27
308.15 K, x1 = 0.9319	749.58
308.15 K, x1 = 1	756.19
318.15 K, x1 = 0.06682	675.24
318.15 K, x1 = 0.1368	679.49
318.15 K, x1 = 0.1974	683.27
318.15 K, x1 = 0.2673	687.79
318.15 K, x1 = 0.3375	692.5
318.15 K, x1 = 0.401	696.91
318.15 K, x1 = 0.4676	701.69
318.15 K, x1 = 0.5324	706.5
318.15 K, x1 = 0.5984	711.56
318.15 K, x1 = 0.6593	716.41
318.15 K, x1 = 0.7309	722.32
318.15 K, x1 = 0.7982	728.08
318.15 K, x1 = 0.8669	734.18
318.15 K, x1 = 0.932	740.18
318.15 K, x1 = 1	746.69

CCC(C)(C)OC [2-methoxy-2-methylbutane] + c1ccccc1
Conditions	mass density [kg/m3]
298.15 K, x2 = 0	765.79
298.15 K, x2 = 0.06414	770.46
298.15 K, x2 = 0.1353	775.9
298.15 K, x2 = 0.2019	781.23
298.15 K, x2 = 0.2693	786.88
298.15 K, x2 = 0.3352	792.67
298.15 K, x2 = 0.4021	798.87
298.15 K, x2 = 0.4653	805.02
298.15 K, x2 = 0.5342	812.08
298.15 K, x2 = 0.6022	819.46
298.15 K, x2 = 0.6671	826.93
298.15 K, x2 = 0.7367	835.44
298.15 K, x2 = 0.7973	843.32
298.15 K, x2 = 0.8665	852.89
298.15 K, x2 = 0.9336	862.89
308.15 K, x2 = 0	756.23
308.15 K, x2 = 0.06701	761.09
308.15 K, x2 = 0.1338	766.17
308.15 K, x2 = 0.2009	771.51
308.15 K, x2 = 0.2672	777.02
308.15 K, x2 = 0.3336	782.8
308.15 K, x2 = 0.4024	789.11
308.15 K, x2 = 0.4715	795.77
308.15 K, x2 = 0.5344	802.18
308.15 K, x2 = 0.6008	809.31
308.15 K, x2 = 0.6685	816.98
308.15 K, x2 = 0.7345	824.97
308.15 K, x2 = 0.7995	833.32
308.15 K, x2 = 0.8625	841.93
308.15 K, x2 = 0.9344	852.47
318.15 K, x2 = 0	746.71
318.15 K, x2 = 0.06757	751.58
318.15 K, x2 = 0.1346	756.63
318.15 K, x2 = 0.2014	761.91
318.15 K, x2 = 0.269	767.5
318.15 K, x2 = 0.3371	773.39
318.15 K, x2 = 0.4031	779.4
318.15 K, x2 = 0.4661	785.42
318.15 K, x2 = 0.5339	792.26
318.15 K, x2 = 0.6012	799.41
318.15 K, x2 = 0.6679	806.93
318.15 K, x2 = 0.7346	814.9
318.15 K, x2 = 0.7994	823.13
318.15 K, x2 = 0.8645	831.93
318.15 K, x2 = 0.9333	841.85

c1ccccc1 [benzene] + CC(C)CC(C)(C)C
x1 = 1
Conditions	mass density [kg/m3]
298.15 K	873.52
308.15 K	862.84
318.15 K	852.18

c1ccccc1 [benzene] + CCC(C)(C)OC
x1 = 1
Conditions	mass density [kg/m3]
298.15 K	873.53
308.15 K	862.85
318.15 K	852.18
